Measurements as given in ChEMBL document CHEMBL3507680, “University of Dundee, Gates Library screen for HepG2 cell viability”.

test: Human HepG2 cell viability assay in 384 well format; assay type: toxicity, cell-based; set-up: dose 125 nL, time 70.5 hour; concentration not given beside the values; conditions: HepG2 cells, read-out: Inhibition

| Structure (SMILES) | cytotoxicity at 70.5 h [%] |
| --- | --- |
| Cc1csc(N2CCN(C3CCc4ccccc4C3)CC2)n1 (stereo unspecified) | 13 |
| CN(C)Cc1csc(-c2nccn2CCc2cccnc2)c1 | -8 |
| CCCc1nnc2sc(C3CCN(CC)CC3)nn12 | -13.4 |
| COc1ccc2c(c1)OCC(Cc1ccc(N(C)C)nc1)C2 (stereo unspecified) | -4.83 |
| N#CC1(c2ccccc2)CCN(C(=O)CN2C(=O)CCNC2=O)CC1 | -0.486 |
| O=C1O[C@@H]2CN(c3ccncc3)C[C@@H]2N1CCCc1ccc(F)cc1 | -6.08 |
| CN1CC2(CCN(C(=O)c3cc(-n4cccn4)ccc3Cl)CC2)OC1=O | 7.23 |
| CCOC(=O)c1n[nH]cc1CN1CCOC(Cc2ccccc2)C1 (stereo unspecified) | 0.539 |
| O=C(c1ccc(Cn2cnnn2)cc1)N1CC[C@H](CO)[C@H](O)C1 | -8.21 |
| c1cncc(CNc2ncnc3c2CCN(Cc2ccsc2)CC3)c1 | -5.06 |
| CCCc1nc(C)cc(NCCc2nnc(N)s2)n1 | -12.9 |
| CCSCC(C)NCc1cc(-c2ccco2)on1 (stereo unspecified) | -10.3 |
| Cc1nc(O)cc(CCNc2nccc(CCC(F)(F)F)n2)n1 | -8.71 |
| Cc1ccccc1CN1CCN(C(=O)CCn2ccccc2=O)CC1 | -12.1 |
| O=C1OCCN1Cc1cccc(C(F)(F)F)c1F | -10.3 |
| CCCn1c(C)c(CC(=O)NCC(C)O)c2c1CC(C)(C)CC2=O (stereo unspecified) | 2.45 |
| Cc1cc(N(C)Cc2ncc[nH]2)nc(-c2cccnc2)n1 | -11.2 |
| CC(C)(CN1C[C@H](Nc2ncccn2)[C@@H](C2CC2)C1)N1CCOCC1 | -11.6 |
| CCc1ncc(C(=O)N(C)CCc2nc3cc(OC)ccc3[nH]2)cn1 | 11.2 |
| Cc1cc(C(=O)NCCc2cn3nc(C)sc3n2)c(C)o1 | -5.61 |
| Cc1ccc(C(=O)O)cc1CNC(=O)CN1CC(C)(C)[C@@](C)(O)C1 | -6.75 |
| O=C(NCCCOc1cccnc1)c1cn(CCc2ccccc2)nn1 | -7.58 |
| OC1(Cn2ccnc2)CCN(C[C@]2(O)CCCN3CCCC[C@@H]32)CC1 | 11.3 |

| Structure (SMILES) | cytotoxicity at 70.5 h [%] |
| --- | --- |
| Cc1ccc(CN2C[C@H]3OC(=O)N(Cc4ccccn4)[C@H]3C2)o1 | 2.3 |
| Cc1ccc(C(=O)N2CCC(c3nccn3Cc3ccncc3)CC2)s1 | -8.45 |
| CCN1CCC(CC(=O)NCCc2nc(O)cc(O)n2)CC1 | 16.1 |
| CCN(Cc1cnn(C)c1)C[C@H]1CC[C@@H](Cc2ccc(C)nc2)O1 | -16.5 |
| c1ncc(-c2cn(CCSc3cnn[nH]3)nn2)cn1 | -6.48 |
| CCOCc1nc2c(c(N3CCCn4nc(C)cc4C3)n1)CCNCC2 | 23.6 |
| CCCc1cc(N2CCC(NCC3(O)CCN(C)CC3)CC2)nc(C)n1 | -6.43 |
| CN(Cc1cc2cc(F)ccc2[nH]1)C(=O)C1CC(=O)N(C2CC2)C1 (stereo unspecified) | -2.65 |
| CCc1nc(N)sc1C(=O)N1CCC(c2cc(O)nc(C)n2)CC1 | 20.6 |
| CC(C)CN1CCN(Cc2nc3c(s2)CCCC3)[C@H]2CS(=O)(=O)C[C@H]21 | 10.7 |
| N#Cc1cnc(N2Cc3cnn(Cc4ccc(F)cc4)c3C2)nc1N | -6.63 |
| Cc1c(C(C)NC2CSCCSC2)cnn1-c1ccc(F)cc1F (stereo unspecified) | -9.32 |
| CN1C[C@H]2CC[C@@H]1CN(C(=O)COCc1nc3cc(F)ccc3[nH]1)C2 | 27.3 |
| COC(C)(C)CC(C)NCc1nncn1C1CCCCC1 (stereo unspecified) | -7.83 |
| O=C1OC2(CCNCC2)CN1CC(=O)N1CCC1c1cccs1 (stereo unspecified) | -6.81 |
| Cc1nc(CC(C)C)cc(C(=O)N2C[C@@H](CN(C)C)[C@@H](CO)C2)n1 | 6.25 |
| CCc1nc(C)c(-c2nccn2CC2CCCCO2)[nH]1 (stereo unspecified) | -10.5 |
| c1cc2c(cc1Cn1cc(C3CCCNC3)nn1)CCCO2 (stereo unspecified) | -15.2 |
| C[C@@H]1CN(C(=O)c2cc(Cn3cnc4ccccc43)on2)C[C@H](C)O1 | -5.79 |
| O=C(NCC1CCN(Cc2cc3ccccc3[nH]2)C1)C1CCCCC1 (stereo unspecified) | -19.6 |
| COc1ccc(-n2nc(C(C)C)nc2Cn2cncn2)cc1 | -8.35 |
| CSCCCN1CCC(c2nnc(Cn3ccnc3)n2C2CC2)CC1 | -0.0518 |
| CCCN1CCC(Cc2nc(CN3CCN(C)CC3)no2)CC1 | -5.37 |

| Structure (SMILES) | cytotoxicity at 70.5 h [%] |
| --- | --- |
| CCN(Cc1ccncc1)C(=O)c1cc(C)c(C)c(S(N)(=O)=O)c1 | -2.98 |
| Cc1ncsc1CCN(C)C(=O)c1c(O)cccc1O | 10.9 |
| CCc1nn(C)c(Cl)c1CN1CCC(c2cc(O)nc(C)n2)CC1 | -10.5 |
| COc1ccc(Cl)cc1-n1cnc(CCNC(C)=O)c1 | -4.49 |
| COc1cccc(S(=O)(=O)N2C[C@@H](N(C)C)[C@H](C(C)C)C2)c1 | -0.713 |
| CCn1c(CN(C)C)nnc1C1CCN(c2nccc(NC)n2)CC1 | -2.22 |
| Cc1cc(NCC2CCS(=O)(=O)C2)n2nc(C)cc2n1 (stereo unspecified) | 12.6 |
| O=C(Nc1cnn(CC(=O)N2CCCCO2)c1)c1ccccn1 | 2.98 |
| O=C(Cn1cccn1)NCC1CCN(Cc2cc3ccccc3[nH]2)C1 (stereo unspecified) | -14.4 |
| N[C@H]1CN(C(=O)c2ccc(CO)cc2)C[C@@H]1C1CC1 | 6.41 |
| CN(CC1CCCCO1)c1ncnc2cc(F)ccc12 (stereo unspecified) | -9.25 |
| CCc1ncc(C(=O)N(C)C(C)c2ccc3c(c2)OCCO3)cn1 (stereo unspecified) | 1.19 |
| Cc1ccccc1OCC(O)C(=O)N1CCC2(CC1)CN(C)C(=O)O2 (stereo unspecified) | -4.24 |
| O=C1CC[C@H]2CN(c3ncc(F)cn3)CC[C@H]2N1CCc1ccccc1 | -6.02 |
| Cc1nnc(CCNC(=O)[C@H]2CNC[C@@H](C(=O)N3CCCC3)C2)s1 | -6.7 |
| CC1(c2ccccc2)CCC(=O)N(CCN2CCOC2=O)C1 (stereo unspecified) | -2.39 |
| COCCOCC(=O)N1CCC(c2ccccc2F)C1 (stereo unspecified) | -9.1 |
| CC(C)(C)SCCNC(=O)[C@@]12CNC[C@@H]1CN(S(C)(=O)=O)C2 | -2.8 |
| O=C(O)c1cc(-c2ccoc2)cc(S(=O)(=O)N2CCSCC2)c1 | -4.7 |
| Cc1cccc(-n2nc(CC(C)C)nc2[C@H](C)O)c1 | 16.4 |
| CN(CCNC(=O)c1cnc(-c2ccncc2)nc1)S(C)(=O)=O | -7.17 |
| O=C(CCN1CCCCC1)N1CCC(Cc2ccc(CO)cc2)C1 (stereo unspecified) | -6.38 |
| CN(Cc1ccon1)c1nc(-c2ccccn2)nc2c1CCNCC2 | 12.3 |

| Structure (SMILES) | cytotoxicity at 70.5 h [%] |
| --- | --- |
| O=C(CN1C(=O)CCNC1=O)N1CCOC(c2ccc(F)cc2)C1 (stereo unspecified) | -2.25 |
| COc1cccc(-c2ncc(CN3CC[C@H]4CC[C@@H](C3)N4)s2)c1 | 9.35 |
| CCN(Cc1ccc(-c2ccccn2)cc1)C1CCS(=O)(=O)C1 (stereo unspecified) | -1.78 |
| O=C(NCc1csc(-c2cnccn2)n1)c1cnn2c1CCCC2 | -5.37 |
| COCCN1CCN(C(=O)c2ccc(C)cc2F)[C@H]2CS(=O)(=O)C[C@H]21 | -8.53 |
| CC(C)N(CCO)C(=O)C1CCC(=O)N(CCc2cccc(F)c2)C1 (stereo unspecified) | -10 |
| Cc1ccc(CN2CCN(Cc3cc(C)n[nH]3)CC2CCO)cc1 (stereo unspecified) | 12.1 |
| CCn1nc(CC(C)C)cc1C(=O)N1CCCC(C#N)C1 (stereo unspecified) | 0.732 |
| CC(=O)N1C[C@H](NS(=O)(=O)Cc2cccc(Cl)c2)[C@@H](C(C)C)C1 | -6.96 |
| CCOc1ccnc(NCc2nc(C)cc(=O)[nH]2)n1 | -6.71 |
| Cc1cc(C)c(Cn2cncn2)cc1CN1CC[C@H]2CC[C@@H](C1)N2 | 2.8 |
| CCC[C@H]1CN(Cc2nccn2C)C[C@@H]1NC(=O)C1(COC)CCC1 | -4.15 |
| O=C(NCc1cccnc1N1CCCC(O)C1)c1ccsc1 (stereo unspecified) | -20.7 |
| Cc1cc2nc(C(C)C)cc(N3CCC(N(C)C)C3)n2n1 (stereo unspecified) | 2.59 |
| Cc1cc(C2CCC2)nc(N2CCC3(CC2)OCCCC3O)n1 (stereo unspecified) | -8.75 |
| Cc1[nH]nc(CCC(=O)N2C[C@H]3CC[C@@H]2CN(C(=O)N(C)C)C3)c1C | -8.2 |
| O=C(O)CN(Cc1ccsc1)CC1CCCO1 (stereo unspecified) | -2.27 |
| CC1(C)CC(CN2CCC3(CCC(=O)N(C4CCC4)C3)CC2)CCO1 (stereo unspecified) | -9.04 |
| O=C(CCCN1CCCCC1)NC(C(=O)O)c1cccc(F)c1 (stereo unspecified) | -6.49 |
| CCc1nc2c(NCC3COc4c(cccc4OC)C3)ncnc2o1 (stereo unspecified) | -4.9 |
| COCc1noc(CN2CC(Cc3ccccc3)CC2=O)n1 (stereo unspecified) | -20.6 |
| CCc1ccc(CN(C)Cc2cnc(S(=O)(=O)CC)n2CCOC)cc1 | -7.48 |
| Cc1ccc(C(=O)N2CCC3(CCC(=O)N(C(C)C)C3)CC2)c(O)c1 | 29.9 |

| Structure (SMILES) | cytotoxicity at 70.5 h [%] |
| --- | --- |
| CC(O)c1cn(CC2CCN(C(=O)c3cscn3)CC2)nn1 (stereo unspecified) | -3.74 |
| CCSCCn1cc(-c2ncc[nH]2)nn1 | -17.4 |
| CCOC(=O)c1coc(N2CCN(Cc3ccc(C)cc3)C(=O)C2)n1 | 0.779 |
| COCCN(Cc1cnn(C)c1)c1nc2c(s1)c(C)nn2C | 3.84 |
| COCCn1cnnc1Cn1ccnc1-c1ccoc1 | 27.2 |
| CSCCC(=O)N(C/C=C/c1ccccc1)CCO | -5.02 |
| Cc1nn(CCC(=O)NC(C(=O)O)c2c(C)n[nH]c2C)c(C)c1C (stereo unspecified) | -3.08 |
| Cc1cc(N2CCN(C(=O)CCc3scnc3C)CC2)cc(C)n1 | 21.2 |
| COc1ccc2c(c1)Cc1c-2nc(N)c(C#N)c1C1CCOC1 (stereo unspecified) | 2.5 |
| CN(C)C(=O)N1C[C@@H]2CC[C@H](C1)N(C(=O)c1cccc(N(C)C)c1)C2 | -4.96 |
| NC(=O)CN1CC2(CCC1=O)CCN(Cc1ccc(F)cc1Cl)CC2 | -1.9 |
| O=C(NCC(F)F)c1ccc(S(=O)(=O)N2CCCC(O)C2)cc1 (stereo unspecified) | 18.2 |
| COCCc1noc(Cn2c(=O)[nH]c3ccccc32)n1 | -10.2 |
| CCN1CC2(CCN(CC3CCCO3)CC2)OC1=O (stereo unspecified) | -2.54 |
| CNc1ncc(C(=O)N2CC[C@@](O)(C3CCOCC3)[C@H](C)C2)cn1 | 5.71 |
| Cn1cc(-c2ccnc(NCC3CCN(Cc4ccccc4)C3)n2)cn1 (stereo unspecified) | 11.9 |
| COc1ccnc(CNc2cc(C3CC3)ncn2)c1 | -11.7 |
| COCc1noc(CN2C(=O)OC[C@@H]2C(C)C)n1 | 19.3 |
| O=C(N1CCC(OCc2ccccn2)CC1)C1(c2ccc(F)cc2)CC1 | -0.41 |
